Ends that are not written are not given here.

Assay [1] concerns TFEB nuclear translocation. To be noted: cited from earlier work.
In the next assay the target is purified recombinant CN (Rattus norvegicus, UniProt P63100+P63329). Put plainly: Fluorescence polarization. Background: Fluorescence polarisation rises when a labelled molecule tumbles more slowly, as on binding a larger partner.
For assay [2], the system named is interaction between GST-CNA and GFP-TFEB. Put plainly: GST pull-down of GFP-TFEB by GST-CNA. To be noted: quercetin 50 μM and 100 μM; GFP-TFEB transfected in HeLa cells. Format: binding.
In another assay the target is PVIVIT peptide. To be noted: cited from earlier work.
Assay [3] addresses NFAT PRIEIT peptide (Homo sapiens). To be noted: cited from earlier work.
The test system of assay [4] is CN. To be noted: kinetics comparable to intact RII; cited from earlier work.
Assay [5] concerns the target CN (Rattus norvegicus, UniProt P63100+P63329). Nature of the assay: CN phosphatase colorimetric assay with RII phosphopeptide as substrate. Format: biochemical.
For assay [6], the system named is CNA in mouse brain lysates. Nature of the assay: GST pull-down of CNA from mouse brain lysates. Format: binding. To be noted: addition of synthetic peptide to pull-down.

Chain of purified recombinant CN (P63100 whole entry, other chains not shown): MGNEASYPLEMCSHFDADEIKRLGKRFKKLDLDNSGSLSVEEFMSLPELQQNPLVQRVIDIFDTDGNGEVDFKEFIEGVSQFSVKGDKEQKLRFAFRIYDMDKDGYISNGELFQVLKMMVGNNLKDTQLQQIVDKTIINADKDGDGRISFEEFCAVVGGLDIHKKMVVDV

As to `C=CC[C@@H]1/C=C(\C)C[C@H](C)C[C@H](OC)[C@H]2O[C@@](O)(C(=O)C(=O)N3CCCC[C@H]3C(=O)O[C@H](/C(C)=C/[C@@H]3CC[C@@H](O)[C@H](OC)C3)[C@H](C)[C@@H](O)CC1=O)[C@H](C)C[C@@H]2OC` [FK506], the “TFEB nuclear translocation during starvation” value in assay [1] was “reduce TFEB nuclear translocation”.
For the compound `CC(C)C[C@H](NC(=O)[C@H](Cc1ccc(O)cc1)NC(=O)[C@H](CCC(N)=O)NC(=O)[C@@H](N)CC(=O)O)C(=O)N[C@@H](C)C(=O)N[C@H](C(=O)N1CCC[C@H]1C(=O)N[C@@H](CCC(N)=O)C(=O)N[C@@H](Cc1c[nH]cn1)C(=O)N1CCC[C@H]1C(=O)N[C@@H](Cc1ccc(O)cc1)C(=O)N[C@@H](CCC(N)=O)C(=O)N[C@@H](Cc1c[nH]c2ccccc12)C(=O)N[C@@H](C)C(=O)N[C@@H](CCCCN)C(=O)O)C(C)C` [NFATc1-YLAVP], the half-inhibitory concentration (IC50) – broadly, the midpoint of a concentration-inhibition curve – at purified recombinant CN is about 5 µM.
Take `O=c1c(O)c(-c2ccc(O)c(O)c2)oc2cc(O)cc(O)c12` [quercetin]: in assay [2], the “effect on interaction between GST-CNA and GFP-TFEB” value is on record as “blocks the interaction”.
In the case of Calcineurin (from UniProt Q08209), the Kd (commonly a measure of binding affinity in units of concentration) with PVIVIT peptide was 500 nM; in assay [3], 25 µM.
With “DLDVPIPGRFDRRVpSVAAE [RII phosphopeptide]”, in the assay with CN [4], the “Vmax of dephosphorylation by CN” value was 1.7 µmol/min/mg.
Consider ESILLVPPTWPKPLV [NFATc2-ILLVP], for which, at CN [5], half-maximal inhibition (IC50) was put at 130 µM.
At CN [5], GSSHLAPPNPDKQFL [RCAN1-HLAPP] returned an IC50 of 131 µM.
With QSYLENPTSYHLQQS [TFEB-YLENP], the “effect on interaction between GST-TFEB-YLENP and CNA” value in assay [6] was “greatly inhibited”.

The record behind these values is PMC5774622 (Biochimie, 2017).
